Data on 5 compounds can be found in patent US20230181560A1, “COMPOUND FOR PREVENTING OR TREATING A VIRAL INFECTION” (priority 2020, published 2023).

Series [1] deals with caspases. The following applies: cited from earlier work.
Series [2] relates to HIV. The conditions noted are these: WO2009/092897; cited from earlier work.
Series [3] deals with SIV. The following applies: cited from earlier work.
For series [4], the system named is HIV-1 lai. Description: Intracellular P24 capsid protein staining by flow cytometry in HIV-1 infected CD4 T lymphocytes. In kind it is cell-based. The conditions noted are these: 20 µM added every two days, staining day 4, 5, 6 post-infection.
For series [5], the system named is CD4 T lymphocytes infected with HIV-1 lai. Description: Annexin V staining (cell mortality/apoptosis) of HIV-1 infected CD4 T lymphocytes. In kind it is cell-based. The conditions noted are these: 20 µM every two days; day 5 post-infection.
Series [6] deals with SARS-CoV-2. Description: microbe, parasite or virus in culture. In kind it is cell-based.
The subject of series [7] is SARS-CoV-2. In kind it is cell-based.
Series [8] concerns SARS-CoV-2. In kind it is cell-based. The source holds these as a separate data set.
In series [9] the test system is Vero E6 cells.

Where two headings read alike, the source gives them in different places.

Consider `CC(C)C(NC(=O)c1ccc2ccccc2n1)C(=O)NC(CC(=O)O)C(=O)COc1c(F)cccc1F` (stereo not shown) [Q-VD-OPh], for which, in series [1], the caspase inhibitory activity result was “broad caspase inhibitor”. Also, the “inhibition of viral replication in HIV-infected cells” value in [2] is reported as “inhibition of viral replication”. Also, in series [3] (SIV-infected rhesus macaques, five injections during primary infection), the “AIDS disease progression and control of viral replication” value is on record as “prevents AIDS disease progression”. The “cancer development after treatment” value in series [3] (six monkeys, four or five years after treatment) is reported as “none of the animals have developed a cancer”.
For `CC(C)C(NC(=O)c1ccc2ccccc2n1)C(=O)NC(CCC(=O)O)C(=O)COc1c(F)cccc1F` (stereo not shown) [Q-VE-OPh], the “antiviral effect on HIV-1 replication (intracellular P24 capsid protein)” value (“antiviral effect on HIV-1 replication” for short) in series [4] is recorded as “same antiviral effect as the comparative Q-VD-OPh molecule”. The “cell mortality (Annexin V surface staining)” value in series [5] is reported as “much less mortality than the infected cells”. Besides, the “effect on the entry of the virus into the cell” value in [6] is listed as “no significant effect”. Also, the inhibition at 50 µM in [6] (Severe acute respiratory syndrome coronavirus 2, Vero C1008, 72 h, read-out: inhibition of SARS-CoV-2 viral replication) is about 99%. In [6] (Severe acute respiratory syndrome coronavirus 2, Vero C1008, 72 h, 25 µM, read-out: inhibition of SARS-CoV-2 viral replication), the inhibition at 25 µM was about 70%. Also, in series [7], the “expression of the viral Spike and Nucleocapsid proteins within infected cells” value is “reduce significantly”. In addition, the “relative expression of the Nucleocapsid (N) and NSP6 genes in supernatants of infected cells” value in [8] is given as “reduce significantly”. In addition, the “toxicity on Vero E6 cells” value in series [9] (100 µM added for three days) is “without any toxicity”; in series [9] (25, 50, 100 µM, infected (MOI 0.05) or not, 72 h post-infection) it was “no toxicity effect”. The caspase inhibitory activity result in [1] is listed as “does not show any caspase inhibitory activity”.
For `CC(C)[C@H](NC(=O)c1ccc2ccccc2n1)C(=O)N[C@@H](CC(=O)O)C(=O)COc1c(F)cccc1F` [QVD-Unmethylated], in [4], the “antiviral effect on HIV-1 replication” value is “same antiviral effect”. In addition, in [5], the “cell mortality (Annexin V surface staining)” value is “The results were the same”.
The like results for `COC(=O)C[C@H](NC(=O)[C@@H](NC(=O)c1ccc2ccccc2n1)C(C)C)C(=O)COc1c(F)cccc1F` [QVD-methylated] were, in that order, “same antiviral effect” and “contrary”.
Consider `CCO[C@@H]1OC(=O)C[C@@H]1NC(=O)[C@@H]1CCCN1C(=O)[C@@H](NC(=O)c1ccc(N)c(Cl)c1)C(C)(C)C` [VX-765], for which, in [4], the “antiviral effect on HIV-1 replication” value is on record as “no effect on the viral replication”.

By inhibition is commonly meant the percentage by which the read-out fell short of the control.
